According to patent EP4759807A1, “PROTEOLYSIS TARGETING CHIMERA COMPOUND FOR DEGRADING IRAK4 AND USE THEREOF” (Shenzhen Zhongge Biological Technology Co., Ltd., priority 2023, dated 2025):
Read-outs that look alike come from different tables or passages of the source.

Molecular target: T1, IRAK4 (Homo sapiens, UniProt Q9NWZ3)
T1 sequence (Q9NWZ3 1-460): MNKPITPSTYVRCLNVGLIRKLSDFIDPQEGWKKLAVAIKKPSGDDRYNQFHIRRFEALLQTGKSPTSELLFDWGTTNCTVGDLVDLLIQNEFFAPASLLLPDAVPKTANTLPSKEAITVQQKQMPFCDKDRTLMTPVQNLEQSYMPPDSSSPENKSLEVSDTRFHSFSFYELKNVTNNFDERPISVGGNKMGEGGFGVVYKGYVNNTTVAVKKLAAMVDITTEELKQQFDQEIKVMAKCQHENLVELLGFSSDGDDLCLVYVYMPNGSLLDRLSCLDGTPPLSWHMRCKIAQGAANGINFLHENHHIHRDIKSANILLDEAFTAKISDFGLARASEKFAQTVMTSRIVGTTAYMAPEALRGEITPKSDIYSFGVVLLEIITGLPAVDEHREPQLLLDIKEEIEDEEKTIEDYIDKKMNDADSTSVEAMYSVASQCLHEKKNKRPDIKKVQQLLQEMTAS
Assay: Hibit fluorescence detection of proteolysis (IRAK4-HiBiT in HEK293T cells)
Assay type: cell-based
Design: host or cells: HEK293T (ATCC)
Settings: for Dmax: HEK-293T
In short: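 Degradation read-out: luminescence from lytic HiBiT detection (15 min, room temperature) after 24 h compound exposure (37 °C, 5% CO2) of HEK293T cells transiently expressing IRAK4 fused to a HiBiT tag. Data fitted to a bell-shaped four-parameter model giving two EC50 values.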

[1] = IRAK4-HiBiT, HEK293T cells, 24 h
[2] = IRAK4-HiBiT, HEK293T cells, 24 h, read-out: Dmax
[3] = IRAK4-HiBiT, HEK293T cells, 24 h, read-out: DC50

Structure (SMILES): Cn1c(=O)n(C2CCC(=O)NC2=O)c2cccc(N3CC4CN(C[C@H]5CC[C@H](n6cc(-n7cc(-c8ccc9cc(C(N)=O)cnn89)nn7)c(C(F)F)n6)CC5)CC4C3)c21 (stereo partly drawn) [Example 81]
- Dmax: > 80%
- DC50 [1]: < 500 pM

Structure (SMILES): Cn1c(=O)n(C2CCC(=O)NC2=O)c2cccc(C3CN(C4CCN(C[C@H]5CC[C@H](n6cc(-n7cc(-c8ccc9cc(C(N)=O)cnn89)nn7)c(C(F)F)n6)CC5)CC4)C3)c21 (stereo partly drawn) [Example 82]
- Dmax: > 80%
- DC50 [1]: < 500 pM

Structure (SMILES): Cn1c(=O)n(C2CCC(=O)NC2=O)c2cccc(C3CN(C4CN(C[C@H]5CC[C@H](n6cc(-n7cc(-c8ccc9cc(C(N)=O)cnn89)nn7)c(C(F)F)n6)CC5)C4)C3)c21 (stereo partly drawn) [Example 83]
- Dmax: 70 to 80%
- DC50 [1]: < 500 pM

Structure (SMILES): Cn1c(=O)n(C2CCC(=O)NC2=O)c2cccc(N3CC4CCC(C3)N4C[C@H]3CC[C@H](n4cc(-n5cc(-c6ccc7cc(C(N)=O)cnn67)nn5)c(C(F)F)n4)CC3)c21 (stereo partly drawn) [Example 86, 7-(1-(3-(difluoromethyl)-1-((1R,4R)-4-(3-(1-(2,6-dioxy-3-yl)-3-methyl-2-oxo-2,3-dihydro-1H-benzo[d]imidazol-4-yl)-3,8-diazabicyclo[3.2.1]oct-8-yl)methyl)cyclohexyl-1H-pyrazol-4-yl)-1H-1,2,3-triazol-4-yl)pyrrolo[1,2-b]pyridazine-3-carboxamide]
- Dmax: > 80%
- DC50 [1]: 1000 to 5000 pM

Structure (SMILES): Cn1c(=O)n(C2CCC(=O)NC2=O)c2cccc(C#CC3CN(C[C@H]4CC[C@H](n5cc(-n6cc(-c7ccc8cc(C(N)=O)cnn78)nn6)c(C(F)F)n5)CC4)C3)c21 (stereo partly drawn) [Example 87]
- Dmax: 70 to 80%
- DC50 [1]: 500 to 1000 pM

Structure (SMILES): Cn1c(=O)n(C2CCC(=O)NC2=O)c2cccc(N3CCOC4(CCN(C[C@H]5CC[C@H](n6cc(-n7cc(-c8ccc9cc(C(N)=O)cnn89)nn7)c(C(F)F)n6)CC5)CC4)C3)c21 (stereo partly drawn) [Example 88]
- Dmax: 70 to 80%
- DC50 [1]: < 500 pM

Structure (SMILES): Cn1c(=O)n(C2CCC(=O)NC2=O)c2cccc(N3CCC4(CC3)CN(C[C@H]3CC[C@H](n5cc(-n6cc(-c7ccc8cc(C(N)=O)cnn78)nn6)c(C(F)F)n5)CC3)CCO4)c21 (stereo partly drawn) [Example 89, 7-(1-(3-(difluoromethyl)-1-((1r,4r)-4-((9-(1-(2,6-dioxopiperidin-3-yl)-3-methyl-2-oxo-2,3-dihydro-1H-benzo[d]imidazol-4-yl)-1-oxa-4,9-diazaspiro[5.5]undecan-4-yl)methyl)cyclohexyl)-1H-pyrazol-4-yl)-1H-1,2,3-triazol-4-yl)pyrrolo[1,2-b]pyridazine-3-carboxamide]
- Dmax: > 80%
- DC50 [1]: 500 to 1000 pM

Structure (SMILES): Cn1c(=O)n(C2CCC(=O)NC2=O)c2cccc(NC(=O)N3CCC4(CCN(C[C@H]5CC[C@H](n6cc(-n7cc(-c8ccc9cc(C(N)=O)cnn89)nn7)c(C(F)F)n6)CC5)C4)CC3)c21 (stereo partly drawn) [Example 90, 2-(((1r,4r)-4-(4-(4-(3-carbamoylpyrrolo[1,2-b]pyridazin-7-yl)-1H-1,2,3-triazol-1-yl) -3-(difluoromethyl)-1H-pyrazol-1-yl)cyclohexyl)methyl)-N-(1-(2,6-dioxopiperidin-3-yl)-3-methyl-2-oxo-2,3-dihydro-1H-benzo[d]imidazol-4-yl)-2,8-diazaspiro[4.5]decan-8-carboxamide]
- Dmax: 70 to 80%
- DC50 [1]: > 5000 pM

Structure (SMILES): Cn1c(=O)n(C2CCC(=O)NC2=O)c2cccc(N3CCC(N4CCN(C[C@H]5CC[C@H](n6cc(-n7cc(-c8ccc9cc(C(N)=O)cnn89)nn7)c(C(F)F)n6)CC5)CC4)CC3)c21 (stereo partly drawn) [Example 91, 7-(1-(3-(difluoromethyl)-1-((1r,4r)-4-((4-(1-(1-(2,6-dioxopiperidin-3-yl)-3-methyl-2-oxo-2,3-dihydro-1H-benzo[d]imidazol-4-yl)piperidin-4-yl)piperazin-1-yl)methyl)cyclohexyl)-1H-pyrazol-4-yl)-1H-1,2,3-triazol-4-yl)pyrrolo[1,2-b]pyridazine-3-carboxamide]
- Dmax: > 80%
- DC50 [1]: < 500 pM

Structure (SMILES): Cn1c(=O)n(C2CCC(=O)NC2=O)c2cccc(N3C4CCC3CN(C[C@H]3CC[C@H](n5cc(-n6cc(-c7ccc8cc(C(N)=O)cnn78)nn6)c(C(F)F)n5)CC3)C4)c21 (stereo partly drawn) [Example 92, 7-(1-(3-(difluoromethyl)-1-((1r,4r)-4-(8-(1-(2,6-dioxopiperidin-3-yl)-3-methyl-2-oxo-2,3-dihydro-1H-benzo[d]imidazol-4-yl)-3,8-diazabicyclo[3.2.1]oct-3-yl)methyl)cyclohexyl-1H-pyrazol-4-yl)-1H-1,2,3-triazol-4-yl)pyrrolo[1,2-b]pyridazine-3-carboxamide]
- Dmax: > 80%
- DC50 [1]: 1000 to 5000 pM

Structure (SMILES): NC(=O)c1cnn2c(-c3cn(-c4cn(C5CCN(CCN6CCN(c7ccc8c(c7)C(=O)N(C7CCC(=O)NC7=O)C8=O)CC6)CC5)nc4C(F)F)nn3)ccc2c1 (stereo not drawn) [Example 93]
- Dmax: 70 to 80%
- DC50 [1]: 1000 to 5000 pM

Structure (SMILES): NC(=O)c1cnn2c(-c3cn(-c4cn(C5CCN(CC6CCN(c7ccc8c(c7)C(=O)N(C7CCC(=O)NC7=O)C8=O)CC6)CC5)nc4C(F)F)nn3)ccc2c1 (stereo not drawn) [Example 94, 7-(1-(3-(difluoromethyl)-1-(1-((1-(2-(2,6-dioxopiperidin-3-yl)-1,3-dioxoisoindolin-5-yl)piperidin-4-yl)methyl)piperidin-4-yl)-1H-pyrazol-4-yl)-1H-1,2,3-triazol-4-yl)pyrrolo[1,2-b]pyridazine-3-carboxamide]
- Dmax [2]: < 60%
- DC50 [3]: < 500 pM

Structure (SMILES): NC(=O)c1cnn2c(-c3cn(-c4cn(C5CCN(CC6CCN(c7ccc(C(=O)NC8CCC(=O)NC8=O)c(F)c7)CC6)CC5)nc4C(F)F)nn3)ccc2c1 (stereo not drawn) [Example 95, 7-{1-[3-(difluoromethyl)-1-{1-[(1-{4-[(2,6-dioxopiperidin-3-yl)aminocarbonyl]-3-fluorophenyl}piperidin-4-yl)methyl]piperidin-4-yl}-1H-pyrazol-4-yl]-1H-1,2,3-triazol-4-yl}pyrrolo[1,2-b]pyridazine-3-carboxamide]
- Dmax [2]: < 60%
- DC50 [3]: > 5000 pM

Structure (SMILES): Cn1c(=O)n(C2CCC(=O)NC2=O)c2cccc(N3CCN(C[C@H]4CC[C@H](n5cc(-n6cc(-n7ccc8cc(C(N)=O)cnc87)nn6)c(C(F)F)n5)CC4)CC3)c21 (stereo partly drawn) [Example 100, 1-(1-(3-(difluoromethyl)-1-((1r,4r)-4-((4-(1-(2,6-dioxopiperidin-3-yl)-3-methyl-2-oxo-2,3-dihydro-1H-benzo[d]imidazol-4-yl)piperazin-1-yl)methyl)cyclohexyl)-1H-pyrazol-4-yl)-1H-1,2,3-triazol-4-yl)-1H-pyrrolo[2,3-b]pyridine-5-carboxamide]
- Dmax: 60 to 70%
- DC50 [1]: 500 to 1000 pM

Structure (SMILES): Cn1c(=O)n(C2CCC(=O)NC2=O)c2cccc(C3CCN(C[C@H]4CC[C@H](n5cc(-n6cc(-n7ccc8cc(C(N)=O)cnc87)nn6)c(C(F)F)n5)CC4)CC3)c21 (stereo partly drawn) [Example 101, 1-(1-(3-(difluoromethyl)-1-((1r,4r)-4-((4-(1-(2,6-dioxopiperidin-3-yl)-3-methyl-2-oxo-2,3-dihydro-1H-benzo[d]imidazol-4-yl)piperidin-1-yl)methyl)cyclohexyl)-1H-pyrazol-4-yl)-1H-1,2,3-triazol-4-yl)-1H-pyrrolo[2,3-b]pyridine-5-carboxamide]
- Dmax: 70 to 80%
- DC50 [1]: < 500 pM

Structure (SMILES): Cn1c(=O)n(C2CCC(=O)NC2=O)c2cccc(N3CCN(C4CCN(C[C@H]5CC[C@H](n6cc(-n7cc(-n8ccc9cc(C(N)=O)cnc98)nn7)c(C(F)F)n6)CC5)CC4)CC3)c21 (stereo partly drawn) [Example 104, 1-(1-(3-(difluoromethyl)-1-((1r,4r)-4-((4-(4-(1-(2,6-dioxopiperidin-3-yl)-3-methyl-2-oxo-2,3-dihydro-1H-benzo[d]imidazol-4-yl)piperazin-1-yl)piperidin-1-yl)methyl)cyclohexyl)-1H-pyrazol-4-yl)-1H-1,2,3-triazol-4-yl)-1H-pyrrolo[2,3-b]pyridine-5-carboxamide]
- Dmax: > 80%
- DC50 [1]: < 500 pM

Structure (SMILES): Cn1c(=O)n(C2CCC(=O)NC2=O)c2cccc(N3CC4(CCN(C[C@H]5CC[C@H](n6cc(-n7cc(-n8ccc9cc(C(N)=O)cnc98)nn7)c(C(F)F)n6)CC5)CC4)C3)c21 (stereo partly drawn) [Example 105, 1-(1-(3-(difluoromethyl)-1-((1r,4r)-4-((2-(1-(2,6-dioxopiperidin-3-yl)-3-methyl-2-oxo-2,3-dihydro-1H-benzo[d]imidazol-4-yl)-2,7-diazaspiro[3.5]non-7-yl)methyl)cyclohexyl)-1H-pyrazol-4-yl)-1H-1,2,3-triazol-4-yl)-1H-pyrrolo[2,3-b]pyridine-5-carboxamide]
- Dmax: > 80%
- DC50 [1]: < 500 pM

Structure (SMILES): Cn1c(=O)n(C2CCC(=O)NC2=O)c2cccc(C#CCOC3CCN(C[C@H]4CC[C@H](n5cc(-n6cc(-n7ccc8cc(C(N)=O)cnc87)nn6)c(C(F)F)n5)CC4)CC3)c21 (stereo partly drawn) [Example 106, 1-{1-[3-(difluoromethyl)-1-[(1r,4r)-4-{[4-({3-[1-(2,6-dioxohexahydropyridin-3-yl)-3-methyl-2-oxobenzo[d]imidazol-4-yl]prop-2-ynyl}oxy)hexahydropyridin-1-yl]methyl}cyclohexyl]pyrazol-4-yl]-1,2,3-triazol-4-yl}pyrrolo[2,3-b]pyridine-5-carboxamide]
- Dmax: 60 to 70%
- DC50 [1]: < 500 pM
